For the assay, the system named is H5 (VN/04), H11 and H12 subtype HAs. Set-up: species or system mice. The conditions noted are these: mouse, in vivo.

SMILES strings stand for the structures.

As for `Cn1c2ccccc2c2nc(SCC(=O)NC3CCCCC3)n(-c3ccccc3)c(=O)c21` [Compound 1Z105], the “IgG subtype profile (IgG2a/IgG1) to H5 subtype HA” value is listed as “induced primarily IgG1”.

Consider `CCCCCCCCC=CCCCCCCCC(=O)OCC(COP(=O)(O)OCCNC(=O)c1ccc(Cn2c(=O)[nH]c3c(N)nc(OCCOC)nc32)cc1)OC(=O)CCCCCCCC=CCCCCCCCC` (centres unmarked) [Compound 1V270], for which the “IgG subtype profile (IgG2a/IgG1) to H5 subtype HA” value is on record as “inducing IgG2a”, the “IgG titers reacting to H11 subtype versus unadjuvanted control” value is reported as “significantly better than the unadjuvanted control”, the “IgG titers reacting to H12 subtype versus unadjuvanted control” value is “significantly better than the unadjuvanted control” and the “serum IgG reactivity to the H5 subtype HA (VN/04) versus no adjuvant” value was “significantly higher reactivity”.

The values above are taken from US20150366962A1 (priority 2014, published 2015).
